Consider one molecule from patent US9676760B2, “Fused heterocyclic compounds as ion channel modulators” (Gilead Sciences, Inc., priority 2011, dated 2017).

The term IC50 denotes the concentration at which inhibition is half-maximal. High values mean a need for much substance, low ones inhibition by little substance.

Series [1] has as its target hNav 1.8 sodium channel isoform (Homo sapiens, UniProt Q9Y5Y9). In words: hNav1.8 sodium channel block. The format is cell-based. The source says: Compounds of this disclosure that block cardiac late INa may also mediate UDB of other Na^+ channel isoforms including the major Na^+ channel isoforms in peripheral nervous system pain fibers, NaV1.7 and 1.8. Compounds of this disclosure that block these channels may also be useful to decrease neuropathic pain.
The inhibition of either hNav 1.7 and hNav 1.8 isoforms or the inhibition of both channels when stimulated at these frequencies support the use of compounds of this disclosure to decrease neuropathic pain.

Series [2] deals with cardiac L-type Ca2+ channel (hCav1.2) (Homo sapiens, UniProt Q13936). As to the kind of experiment: L-type Ca2+ channel assay - ChanTest (PatchXpress, CHO cells). The format is cell-based. The source says: Selected compounds were screened for block of the cardiac L-type Ca^2+ channel (hCav1.2, encoded by the human CACNA1C gene and coexpressed with the beta 2 subunit, encoded by the human CACNB2 gene and alpha2delta1, encoded by the CACNA2D1 gene). The Ca^2+ channel is heterologously expressed in a CHO (Chinese Hamster Ovary) cell line. Cells are maintained following standard tissue culture procedures and stable channel expression is maintained with appropriate selection antibiotics in the culture medium. Cells are harvested for testing on the PatchXpress automated patch clamp (Model 7000A, Molecular Devices, Sunnyvale, Calif.) by washing twice with Hank's Balanced Salt Solution, treating the cells with trypsin and re-suspending cells in culture medium (4-6×10^6 cells in 20 mL). Cells in suspension are allowed to recover for 10 minutes in a tissue culture incubator set at 37° C. in a humidified 95% air, 5% CO2 atmosphere.
The following solutions are used for electrophysiological recordings. The external solution contains (mM): 137 NaCl, 4 KCl, 1.8 CaCl2, 1 MgCl2, 10 Glucose, 10 HEPES (pH 7.4 with NaOH). The internal solution contains (mM): 130 Cs Aspartate, 5 MgCl2, 10 EGTA, 4 ATP, 0.5 GTP, 10 HEPES, (pH adjusted to 7.2 with N-methyl-D-glucamine).
Vehicle is applied to naive cells (n≧2, where n=the number cells), for a 5-10 minute exposure interval. Each solution exchange is performed in quadruplicate. At the end of each experiment, a saturating concentration of nifedipine (10 μM) is added to block hCav1.2 current. Leak current is digitally subtracted from the total membrane current record.
Test compound stock solutions are prepared by addition of dimethyl sulfoxide (DMSO) and stored frozen. Each test compound DMSO stock is sonicated (Model 2510/5510, Branson Ultrasonics, Danbury, Conn.), at ambient room temperature for at least 20 minutes to facilitate dissolution. Test compound concentrations are prepared fresh daily by diluting stock solutions into the standard extracellular physiological saline solution (see above). The maximum percent of DMSO added with compound is 0.1%. All test compound and control solutions are placed in a glass-lined 96-well compound plate before loading on PatchXpress.
Two concentrations (1, 10 μM) of each test compound are applied at five (5) minute intervals via disposable polyethylene micropipette tips to naïve cells (n≧2, where n=the number cells/concentration). Each test compound concentration is added to the cell in quadruplicate. […]
Onset and steady state block of hCav1.2 (α1C/β2/α2δ[…] channels is measured using a stimulus voltage pattern consisting of a depolarizing test pulse (duration, 200 ms; amplitude, 10 mV) at 10 s intervals from a −80 mV holding potential. Peak current is measured during a step to 10 mV.

The test system of series [3] is Female New Zealand rabbits. In words: Ischemia-induced ST segment elevation in anesthetized rabbits. It is filed as in vivo, rabbit. The protocol: This study was undertaken to determine the anti-ischemic effects of compounds of the present disclosure in an in vivo rabbit model.
Female New Zealand rabbits (3.0-4.0 kg) were purchased from Western Oregon Rabbitry. Animals were housed on a 12-h light and dark cycle and received standard laboratory chow and water. All experiments were performed in accordance with the Guide for the Care and Use of Laboratory Animals published by The National Research Council and with the experimental protocol approved by the Institutional Animal Care Committee of Gilead Sciences, Inc.
Rabbits were anesthetized with ketamine (35 mg/kg) and xylazine (5 mg/kg) intramuscular injection (im). A tracheotomy was performed and the trachea was intubated with an endotracheal tube. The animal was ventilated with room air supplemented with oxygen using a pressure control animal ventilator (Kent Scientific Corp., Torrington, Conn.) at a respiratory rate of 40 strokes/min and peak inspiration pressure of 10 mmH2O, which was adjusted to keep blood gases and pH within the physiological range (iSTAT clinic analyzer, Heska Corp.; Waukesha, Wis.). The left femoral artery was cannulated for the measurement of blood pressure (BP). Blood samples were also withdrawn from femoral artery. The right external jugular vein was cannulated for drug/vehicle administration. Needle electrodes were inserted subcutaneously into the limbs for recording of the surface electrocardiogram (ECG). The heart was exposed via an incision in the 4th intercostal space (4th and/or 5th ribs were cut for a clear surgical vision). The chest was opened and a pericardial cradle was formed using 4 retractors. A coronary artery occluder, comprised of a snare made of 5 cm PE-10 tubing with a 6-0 Prolene polypropylene suture in it, was placed loosely around the left anterior descending artery (LAD) at its origin. Two unipolar electrodes, made with teflon coated silver wire attached to a small patch of filter paper, were attached on the surface of the ischemic and normal regions of the left ventricle to record epicardial electrocardiogram. Reference electrodes were placed in the open incision of the neck. The body temperature of the animal was monitored via a rectal thermometer and maintained at 37-40° C. by adjusting the surface temperature of the surgical table. Regional ischemia (15 min) was induced by ligating the LAD followed by 15 min of reperfusion caused by releasing the ligation. The heart was excised at the end of the experiment and the LAD was re-ligated. The ischemic area was visualized by perfusing the heart with 1% Evans blue in saline and calculated as a percentage of total ventricular weight. Rabbits with ischemic area less than 10% or larger than 25% were excluded from the analysis. Animals were randomly assigned to vehicle and test compound groups. Test compounds was dissolved in 5% NMP, 30% PG, 45% PEG 400 and 20% de-ionized water (dH2O). Test compound was given as an iv bolus at 0.1, 0.2 and 0.4 mg/kg. After 30 min of dosing, the heart was subjected to 15 min of ischemia followed by 15 min of reperfusion.

Where only a bound is given, the exact number is not on record here.

cardiac L-type Ca2+ channel (hCav1.2), sequence (Q13936 whole entry): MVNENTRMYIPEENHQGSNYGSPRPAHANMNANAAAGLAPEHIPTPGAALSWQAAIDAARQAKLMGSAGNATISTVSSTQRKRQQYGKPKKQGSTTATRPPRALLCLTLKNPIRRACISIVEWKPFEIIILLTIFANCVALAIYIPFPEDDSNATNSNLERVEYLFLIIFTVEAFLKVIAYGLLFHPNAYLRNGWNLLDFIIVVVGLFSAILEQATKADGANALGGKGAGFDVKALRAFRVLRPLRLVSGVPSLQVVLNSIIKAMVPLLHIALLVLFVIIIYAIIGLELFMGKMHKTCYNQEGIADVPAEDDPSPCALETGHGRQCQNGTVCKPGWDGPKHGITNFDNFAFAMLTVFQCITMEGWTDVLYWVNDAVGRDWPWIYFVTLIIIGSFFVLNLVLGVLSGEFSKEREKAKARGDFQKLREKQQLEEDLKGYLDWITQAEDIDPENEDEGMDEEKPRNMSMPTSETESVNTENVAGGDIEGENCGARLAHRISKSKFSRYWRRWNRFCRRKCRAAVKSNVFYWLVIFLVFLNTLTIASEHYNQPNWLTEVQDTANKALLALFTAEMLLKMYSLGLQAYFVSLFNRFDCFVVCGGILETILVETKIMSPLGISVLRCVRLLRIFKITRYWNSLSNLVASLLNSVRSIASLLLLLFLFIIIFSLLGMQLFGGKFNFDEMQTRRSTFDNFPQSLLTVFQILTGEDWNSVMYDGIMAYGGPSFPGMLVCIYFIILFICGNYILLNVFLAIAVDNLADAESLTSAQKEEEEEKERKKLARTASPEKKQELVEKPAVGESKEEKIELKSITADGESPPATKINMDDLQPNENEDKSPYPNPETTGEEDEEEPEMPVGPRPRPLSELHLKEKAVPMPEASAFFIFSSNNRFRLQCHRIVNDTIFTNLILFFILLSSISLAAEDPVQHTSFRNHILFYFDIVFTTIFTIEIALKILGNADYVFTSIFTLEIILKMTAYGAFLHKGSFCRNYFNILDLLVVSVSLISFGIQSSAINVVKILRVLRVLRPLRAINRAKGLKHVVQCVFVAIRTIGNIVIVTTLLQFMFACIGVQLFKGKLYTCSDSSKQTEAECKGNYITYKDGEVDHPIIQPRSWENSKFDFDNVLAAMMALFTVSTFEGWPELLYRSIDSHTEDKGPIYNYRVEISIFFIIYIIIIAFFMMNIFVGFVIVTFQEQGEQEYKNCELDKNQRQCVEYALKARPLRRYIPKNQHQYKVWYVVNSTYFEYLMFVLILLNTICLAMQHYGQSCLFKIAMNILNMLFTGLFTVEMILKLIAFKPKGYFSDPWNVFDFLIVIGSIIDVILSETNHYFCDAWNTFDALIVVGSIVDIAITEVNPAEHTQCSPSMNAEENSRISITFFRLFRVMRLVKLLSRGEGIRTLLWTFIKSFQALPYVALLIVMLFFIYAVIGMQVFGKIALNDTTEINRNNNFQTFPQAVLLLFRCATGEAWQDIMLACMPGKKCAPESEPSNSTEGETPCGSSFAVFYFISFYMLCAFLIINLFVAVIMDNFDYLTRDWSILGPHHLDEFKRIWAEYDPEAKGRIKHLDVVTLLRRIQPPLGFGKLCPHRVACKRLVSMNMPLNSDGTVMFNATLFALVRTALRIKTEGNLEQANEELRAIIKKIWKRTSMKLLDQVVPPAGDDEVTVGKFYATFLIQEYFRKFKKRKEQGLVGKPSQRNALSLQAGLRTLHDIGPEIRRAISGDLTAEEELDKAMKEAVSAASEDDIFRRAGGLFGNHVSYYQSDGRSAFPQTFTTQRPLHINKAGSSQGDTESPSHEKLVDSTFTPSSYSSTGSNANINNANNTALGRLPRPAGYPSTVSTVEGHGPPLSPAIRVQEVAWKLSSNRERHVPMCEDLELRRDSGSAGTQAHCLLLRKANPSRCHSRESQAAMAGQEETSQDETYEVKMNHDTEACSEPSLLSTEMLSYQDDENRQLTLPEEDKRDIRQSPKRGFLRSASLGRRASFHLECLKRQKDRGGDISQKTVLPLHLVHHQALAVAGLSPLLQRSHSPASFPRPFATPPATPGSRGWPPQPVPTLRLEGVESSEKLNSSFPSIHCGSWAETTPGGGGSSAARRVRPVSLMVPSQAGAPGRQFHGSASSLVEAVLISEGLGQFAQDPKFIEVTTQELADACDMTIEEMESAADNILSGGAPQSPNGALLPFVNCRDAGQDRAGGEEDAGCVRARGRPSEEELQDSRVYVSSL
cardiac L-type Ca2+ channel (hCav1.2), sequence (Q08289 whole entry partner): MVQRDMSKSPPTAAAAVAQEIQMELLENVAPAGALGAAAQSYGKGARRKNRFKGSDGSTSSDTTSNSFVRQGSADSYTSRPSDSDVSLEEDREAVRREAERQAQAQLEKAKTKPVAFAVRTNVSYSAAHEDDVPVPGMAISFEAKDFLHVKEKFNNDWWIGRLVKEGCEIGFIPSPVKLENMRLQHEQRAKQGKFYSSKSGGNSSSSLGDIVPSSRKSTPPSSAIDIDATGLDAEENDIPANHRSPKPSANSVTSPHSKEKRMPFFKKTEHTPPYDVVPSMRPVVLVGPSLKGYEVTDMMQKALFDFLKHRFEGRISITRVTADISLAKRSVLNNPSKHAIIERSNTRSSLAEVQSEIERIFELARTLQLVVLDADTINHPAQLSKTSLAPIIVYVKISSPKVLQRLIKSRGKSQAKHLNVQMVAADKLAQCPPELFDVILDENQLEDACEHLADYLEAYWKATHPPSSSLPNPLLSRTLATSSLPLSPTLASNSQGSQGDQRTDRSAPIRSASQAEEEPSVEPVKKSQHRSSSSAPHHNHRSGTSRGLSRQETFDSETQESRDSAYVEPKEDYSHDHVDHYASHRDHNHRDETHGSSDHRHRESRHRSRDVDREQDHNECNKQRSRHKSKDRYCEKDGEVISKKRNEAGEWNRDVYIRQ
cardiac L-type Ca2+ channel (hCav1.2), sequence (P54289 25-956 partner limits assumed): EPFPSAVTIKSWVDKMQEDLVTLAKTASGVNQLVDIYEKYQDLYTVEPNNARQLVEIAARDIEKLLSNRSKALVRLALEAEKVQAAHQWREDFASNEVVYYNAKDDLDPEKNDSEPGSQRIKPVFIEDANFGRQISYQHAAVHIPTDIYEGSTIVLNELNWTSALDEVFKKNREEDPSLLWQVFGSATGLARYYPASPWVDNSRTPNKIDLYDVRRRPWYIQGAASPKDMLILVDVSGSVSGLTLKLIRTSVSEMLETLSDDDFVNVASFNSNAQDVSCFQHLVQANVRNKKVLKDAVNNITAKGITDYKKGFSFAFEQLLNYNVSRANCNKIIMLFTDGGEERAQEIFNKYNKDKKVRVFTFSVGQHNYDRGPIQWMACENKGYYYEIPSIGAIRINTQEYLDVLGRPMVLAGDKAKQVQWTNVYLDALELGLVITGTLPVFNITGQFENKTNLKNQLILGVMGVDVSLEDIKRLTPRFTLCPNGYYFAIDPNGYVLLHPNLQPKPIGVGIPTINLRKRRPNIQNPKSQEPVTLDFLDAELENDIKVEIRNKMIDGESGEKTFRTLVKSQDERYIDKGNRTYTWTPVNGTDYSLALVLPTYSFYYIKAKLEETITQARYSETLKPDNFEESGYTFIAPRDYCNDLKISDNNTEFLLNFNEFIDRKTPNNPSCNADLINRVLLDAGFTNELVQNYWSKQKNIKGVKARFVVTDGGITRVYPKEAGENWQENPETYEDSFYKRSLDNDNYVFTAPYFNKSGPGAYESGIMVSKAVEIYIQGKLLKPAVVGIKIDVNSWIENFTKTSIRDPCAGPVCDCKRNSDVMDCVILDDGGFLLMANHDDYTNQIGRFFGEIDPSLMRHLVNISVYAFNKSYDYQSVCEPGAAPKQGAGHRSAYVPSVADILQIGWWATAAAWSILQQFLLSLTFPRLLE
cardiac L-type Ca2+ channel (hCav1.2), sequence (P54289 957-1103 partner limits assumed): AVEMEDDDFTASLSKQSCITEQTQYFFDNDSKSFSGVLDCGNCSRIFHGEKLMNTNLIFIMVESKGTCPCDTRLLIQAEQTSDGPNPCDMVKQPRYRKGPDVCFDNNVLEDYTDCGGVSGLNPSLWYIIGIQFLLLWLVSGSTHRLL

As for `O=C1c2cc(-c3ccc(OC(F)(F)F)cc3)ccc2OCCN1Cc1ncccn1` [II-73, 4-(pyrimidin-2-ylmethyl)-7-(4-(trifluoromethoxy)phenyl)-3,4-dihydrobenzo[f][1,4]oxazepin-5(2H)-one], the results for the IC50 in series [1] (10 Hz frequency) and in series [1] (frequency of 25 Hz) were > 10000 nM and 1500 nM, respectively. Besides, the “blocked the hCav1.2 late current” value in series [2] (1 μM concentration) is listed as 14%; in series [2] (10 μM concentration) it was 47%. For the same molecule, the “blocked the hCav1.2 peak current” value in series [2] (1 μM concentration) was 32%; in series [2] (10 μM concentration), 79%. Further, the “area under curve (AUC) for the ST segment height reduced (vs. control)” value in series [3] (0.5 μM plasma concentration, iv bolus, 15 min ischemia) turned out to be 93%. Moreover, the “effect on blood pressure (BP), heart rate (HR) and ECG intervals prior to the ischemia” value in series [3] (at the plasma concentration levels studied) is “no significant effect”. Further, in series [3] (iv bolus 30 min before 15 min ischemia), the “ischemia-induced ST elevation” value is listed as “dose-dependently prevented”.
